The record followed here is patent US10357477B2, “Anticancer compounds” (REGENTS OF THE UNIVERSITY OF MINNESOTA, priority 2016, dated 2019).

In assay [1] the test system is MIA PaCa-2 cells. As to the kind of experiment: Cell viability assay (MTT) in MIA PaCa-2 cells. It counts as cell-based. Particulars: Homo sapiens, antiproliferative activity, 72 h. As to the method:
MIA PaCa-2 cells (CRL-1420, ATCC) were maintained in DMEM media supplemented with 10% FBS, 2.5% HS, 1% GlutaMAX, 1% sodium pyruvate, 100 U/mL penicillin, and 100 μg/mL streptomycin. Cell culture media and additives were purchased from Gibco. Cells were plated in 96-well plates at |1−2.5|×10^4 cells per well in the DMEM growth media. One microliter of a 2-fold serially diluted compound solution in DMSO (Sigma) starting at 20 mM (100 μM final concentration) was added to each well. The final volume in each well was 200 μL, yielding a final DMSO concentration of 0.5%. Control wells contained 0.5% DMSO (100% viability) or 25% DMSO (background) and all reactions were done in triplicate. The plate was incubated for 72 h at 37° C. in a 5% CO2/95% air humidified atmosphere.
Measurement of cell viability was carried out using a modified method of Mosmann based on 3-(4,5-dimethylthiazol-2-yl)-2,5-diphenyltetrazolium bromide (MTT, Sigma). MTT solution was prepared fresh at 1 mg/mL in serum-free and phenol red-free RPMI 1640 media. After 200 μL of MTT solution was added to each well, the plate was incubated as described above for 3 h. The MTT solution was removed, and the formazan crystals were solubilized with 200 μL of isopropanol. The plate was read on a SpectraMax i3 spectrophotometer (Molecular Devices) at 570 nm for formazan and 650 nm for background subtraction. EC50 values were calculated by fitting the data in GraphPad Prism software. EC50 values were determined in triplicate.

Assay [2] has as its system Panc-1 cells. Briefly: Cell viability assay (MTT) in Panc-1 cells. It counts as cell-based. Particulars: Homo sapiens, antiproliferative activity, 72 h. As to the method:
Panc-1 cells are maintained in RPMI 1640 (Invitrogen 11875) media supplemented with 10% FBS, 1% Penicillin/Streptomycin and 1% Glutamax-1. Cells were plated in 96-well plates at 25×10^4 cells/ml. After 24 hours, compounds were added at 9, 3× dilutions in triplicate from 100 uM final concentration in the appropriate growth media. Plates were incubated for 72 hours at 37° C. in a 5% CO2/95% air humidified atmosphere after which time the media was removed and MTT was added in RPMI phenol red free media. The MTT was removed after 3 hours and formazan crystals were solubilized with 200 μL of isopropanol. Plates were read on a Molecular Devices SpectraMax i3 spectrophotometer at 570 nm for formazan and 690 nm for background subtraction. EC50 values were calculated by fitting the data in GraphPad Prism software.

SMILES strings stand for the structures.

On to `Cc1nn(Cc2ccc(C(N)=O)cc2)c(C)c1NC(=O)c1ccc(COc2ccccc2)cc1` [Compound A2a, N-(1-(4-Carbamoylbenzyl)-3,5-dimethyl-1H-pyrazol-4-yl)-4-(phenoxymethyl)benzamide], for which the EC50 in assay [1] and in assay [2] was over 100 µM throughout.
`Cc1nn(Cc2cccc(C(N)=O)c2)c(C)c1NC(=O)c1ccc(COc2ccccc2)cc1` [Compound A2b, N-(1-(3-Carbamoylbenzyl)-3,5-dimethyl-1H-pyrazol-4-yl)-4-(phenoxymethyl)benzamide]: the EC50 is 9.2 µM in assay [1] and 11 µM in assay [2].
The corresponding values for `Cc1nn(Cc2ccccc2C(N)=O)c(C)c1NC(=O)c1ccc(COc2ccccc2)cc1` [Compound A2c, N-(1-(2-Carbamoylbenzyl)-3,5-dimethyl-1H-pyrazol-4-yl)-4-(phenoxymethyl)benzamide] are 42 µM and over 100 µM.
The corresponding values for `CNC(=O)c1ccc(Cn2nc(C)c(NC(=O)c3ccc(COc4ccccc4)cc3)c2C)cc1` [Compound A3a, N-(3,5-Dimethyl-1-(4-(methylcarbamoyl)benzyl)-1H-pyrazol-4-yl)-4-(phenoxymethyl)benzamide] are 12 µM and 36 µM.
`CNC(=O)c1cccc(Cn2nc(C)c(NC(=O)c3ccc(COc4ccccc4)cc3)c2C)c1` [Compound A3b, 3-((3,5-Dimethyl-4-(4-(phenoxymethyl)benzamido)-1H-pyrazol-1-yl)methyl)-N-methylbenzamide]: the half-maximal effective concentration (EC50) in assay [1] is 6.2 µM; in assay [2] it was 5.2 µM.
The corresponding values for `CNC(=O)c1ccccc1Cn1nc(C)c(NC(=O)c2ccc(COc3ccccc3)cc2)c1C` [Compound A3c, 2-((3,5-Dimethyl-4-(4-(phenoxymethyl)benzamido)-1H-pyrazol-1-yl)methyl)-N-methylbenzamide] are 7.7 µM and 14 µM.
Consider `Cc1nn(Cc2cccc(C(=O)N(C)C)c2)c(C)c1NC(=O)c1ccc(COc2ccccc2)cc1` [Compound A4a, 3-((3,5-Dimethyl-4-(4-(phenoxymethyl)benzamido)-1H-pyrazol-1-yl)methyl)-N,N-dimethylbenzamide], for which the half-maximal effective concentration (EC50) stood at 6.4 µM in assay [1] and 1.2 µM in assay [2].
In the case of `CCNC(=O)c1cccc(Cn2nc(C)c(NC(=O)c3ccc(COc4ccccc4)cc3)c2C)c1` [Compound A4b, 3-((3,5-Dimethyl-4-(4-(phenoxymethyl)benzamido)-1H-pyrazol-1-yl)methyl)-N-ethylbenzamide], the EC50 was determined as 11 µM in assay [1] and 1.6 µM in assay [2].
The corresponding values for `Cc1nn(Cc2cccc(C(=O)NC(C)C)c2)c(C)c1NC(=O)c1ccc(COc2ccccc2)cc1` [Compound A4c, 3-((3,5-Dimethyl-4-(4-(phenoxymethyl)benzamido)-1H-pyrazol-1-yl)methyl)-N-isopropylbenzamide] are 8.9 µM and 1.4 µM.
As for `Cc1nn(Cc2ccc([N+](=O)[O-])cc2)c(C)c1NC(=O)c1ccc(COc2ccccc2)cc1` [Compound A5a, N-(3,5-Dimethyl-1-(4-nitrobenzyl)-1H-pyrazol-4-yl)-4-(phenoxymethyl)benzamide], the EC50 in assay [1] worked out at 7.8 µM; in assay [2], 23 µM.
The corresponding values for `Cc1nn(Cc2cccc([N+](=O)[O-])c2)c(C)c1NC(=O)c1ccc(COc2ccccc2)cc1` [Compound A5b, N-(3,5-Dimethyl-1-(3-nitrobenzyl)-1H-pyrazol-4-yl)-4-(phenoxymethyl)benzamide] are 11 µM and 20 µM.
In the same order, the values of `Cc1nn(Cc2ccccc2[N+](=O)[O-])c(C)c1NC(=O)c1ccc(COc2ccccc2)cc1` [Compound A5c, N-(3,5-Dimethyl-1-(2-nitrobenzyl)-1H-pyrazol-4-yl)-4-(phenoxymethyl)benzamide] are 6 µM and 5.3 µM.
The corresponding values for `Cc1nn(Cc2ccc(N)cc2)c(C)c1NC(=O)c1ccc(COc2ccccc2)cc1` [Compound A6a, N-(1-(4-Aminobenzyl)-3,5-dimethyl-1H-pyrazol-4-yl)-4-(phenoxymethyl)benzamide] are over 100 µM and 44 µM.
Regarding `Cc1nn(Cc2cccc(N)c2)c(C)c1NC(=O)c1ccc(COc2ccccc2)cc1` [Compound A6b, N-(1-(3-Aminobenzyl)-3,5-dimethyl-1H-pyrazol-4-yl)-4-(phenoxymethyl)benzamide], the EC50 in assay [1] amounted to 35 µM; in assay [2], 9.7 µM.
Regarding `Cc1nn(Cc2ccccc2N)c(C)c1NC(=O)c1ccc(COc2ccccc2)cc1` [Compound A6c, N-(1-(2-Aminobenzyl)-3,5-dimethyl-1H-pyrazol-4-yl)-4-(phenoxymethyl)benzamide], the EC50 was 11 µM in assay [1] and 22 µM in assay [2].
In the same order, the values of `CC(=O)Nc1ccc(Cn2nc(C)c(NC(=O)c3ccc(COc4ccccc4)cc3)c2C)cc1` [Compound A7a, N-(1-(4-Acetamidobenzyl)-3,5-dimethyl-1H-pyrazol-4-yl)-4-(phenoxymethyl)benzamide] are 50 µM and over 100 µM.
In the same order, the values of `CC(=O)Nc1cccc(Cn2nc(C)c(NC(=O)c3ccc(COc4ccccc4)cc3)c2C)c1` [Compound A7b, N-(1-(3-Acetamidobenzyl)-3,5-dimethyl-1H-pyrazol-4-yl)-4-(phenoxymethyl)benzamide] are 2.7 µM and 12 µM.
The corresponding values for `CC(=O)Nc1ccccc1Cn1nc(C)c(NC(=O)c2ccc(COc3ccccc3)cc2)c1C` [Compound A7c, N-(1-(2-Acetamidobenzyl)-3,5-dimethyl-1H-pyrazol-4-yl)-4-(phenoxymethyl)benzamide] are 2.6 µM and 31 µM.
For the molecule `CNC(=O)c1cccc(Cn2nc(C)c(NC(=O)c3ccc(CCc4ccccc4)cc3)c2C)c1` [Compound C3, 3-((3,5-Dimethyl-4-(4-phenethylbenzamido)-1H-pyrazol-1-yl)methyl)-N-methylbenzamide], the EC50 in assay [1] stood at 5.4 µM; in assay [2], 0.76 µM.
In the same order, the values of `CNC(=O)c1cccc(Cn2nc(C)c(NC(=O)c3ccc(C(=O)Nc4ccccc4)cc3)c2C)c1` [Compound C4, N^1-(3,5-Dimethyl-1-(3-(methylcarbamoyl)benzyl)-1H-pyrazol-4-yl)-N^4-phenylterephthalamide] are 69 µM and 51 µM.
For the molecule `CNC(=O)c1cccc(Cn2nc(C)c(NC(=O)c3ccc(OCc4ccccc4)cc3)c2C)c1` [Compound C5, 3-((4-(4-(Benzyloxy)benzamido)-3,5-dimethyl-1H-pyrazol-1-yl)methyl)-N-methylbenzamide], the results for the EC50 in assay [1] and in assay [2] were 8.2 µM and 6 µM, respectively.
With `CNC(=O)c1cccc(Cn2nc(C)c(NC(=O)c3ccc(COc4cccc5ccccc45)cc3)c2C)c1` [Compound D2, 3-((3,5-Dimethyl-4-(4-((naphthalen-1-yloxy)methyl)benzamido)-1H-pyrazol-1-yl)methyl)-N-methylbenzamide], the EC50 is 6 µM in assay [1] and 1.3 µM in assay [2].
On to `CNC(=O)c1cccc(Cn2nc(C)c(NC(=O)c3ccc(COc4ccccc4C)cc3)c2C)c1` [Compound D3a, 3-((3,5-Dimethyl-4-(4-((o-tolyloxy)methyl)benzamido)-1H-pyrazol-1-yl)methyl)-N-methylbenzamide], for which the EC50 was determined as 2.1 µM in assay [1] and 0.61 µM in assay [2].
The corresponding values for `CNC(=O)c1cccc(Cn2nc(C)c(NC(=O)c3ccc(COc4cccc(C)c4)cc3)c2C)c1` [Compound D3b, 3-((3,5-Dimethyl-4-(4-((m-tolyloxy)methyl)benzamido)-1H-pyrazol-1-yl)methyl)-N-methylbenzamide] are 6.2 µM and 0.56 µM.
The corresponding values for `CNC(=O)c1cccc(Cn2nc(C)c(NC(=O)c3ccc(COc4ccc(C)cc4)cc3)c2C)c1` [Compound D3c, 3-((3,5-Dimethyl-4-(4-((p-tolyloxy)methyl)benzamido)-1H-pyrazol-1-yl)methyl)-N-methylbenzamide] are 2.6 µM and 13 µM.
As to `CNC(=O)c1cccc(Cn2nc(C)c(NC(=O)c3ccc(COc4ccccc4OC)cc3)c2C)c1` [Compound D4a, 3-((4-(4-((2-Methoxyphenoxy)methyl)benzamido)-3,5-dimethyl-1H-pyrazol-1-yl)methyl)-N-methylbenzamide], the EC50 came to 8.5 µM in assay [1] and 25 µM in assay [2].
For the molecule `CNC(=O)c1cccc(Cn2nc(C)c(NC(=O)c3ccc(COc4cccc(OC)c4)cc3)c2C)c1` [Compound D4b, 3-((4-(4-((3-Methoxyphenoxy)methyl)benzamido)-3,5-dimethyl-1H-pyrazol-1-yl)methyl)-N-methylbenzamide], the EC50 in assay [1] and in assay [2] was 6.2 µM throughout.

As a reminder, the EC50 is the concentration needed to bring the measured effect to its halfway point. A lower EC50 goes with greater potency.
